This note sets out measurements from ChEMBL document CHEMBL5032520, “Low-Valent Calix[4]arene Glycoconjugates Based on Hydroxamic Acid Bearing Linkers as Potent Inhibitors in a Model of Ebola Virus Cis-Infection and HCMV-gB-Recombinant Glycoprotein Interaction with MDDC Cells by Blocking DC-SIGN” (J Med Chem, 2021).

Molecules are shown by their SMILES.

A word on the IC50: it is the concentration needed to halve the response being measured. Higher therefore signals weaker potency in that assay.

The test system of experiment [1] is Human betaherpesvirus 5. The experiment can be described thus: Potency index, ratio of Mannan IC50 to test compound IC50 for antiviral activity against HCMV infected in U-937 cells expressed in DC-SIGN using flow cytometry. It counts as functional.
Experiment [2] relates to Human betaherpesvirus 5. The experiment is described as follows: Antiviral activity against HCMV infected in U-937 cells expressed in DC-SIGN using flow cytometry. It counts as functional, organism-based. As to conditions: Human betaherpesvirus 5, U-937.

Regarding `C[C@@H]1O[C@@H](OCc2cn(CCCCCC(=O)N(O)Cc3cn(CCCOc4c5cc(C(C)(C)C)cc4Cc4cc(C(C)(C)C)cc(c4OCCCn4cc(CN(O)C(=O)CCCCCn6cc(CO[C@@H]7O[C@@H](C)[C@@H](O)[C@@H](O)[C@@H]7O)nn6)nn4)Cc4cc(C(C)(C)C)cc(c4OCCCn4cc(CN(O)C(=O)CCCCCn6cc(CO[C@@H]7O[C@@H](C)[C@@H](O)[C@@H](O)[C@@H]7O)nn6)nn4)Cc4cc(C(C)(C)C)cc(c4OCCCn4cc(CN(O)C(=O)CCCCCn6cc(CO[C@@H]7O[C@@H](C)[C@@H](O)[C@@H](O)[C@@H]7O)nn6)nn4)C5)nn3)nn2)[C@@H](O)[C@H](O)[C@@H]1O`, in the experiment with Human betaherpesvirus 5 [1], the “Ratio IC50” value was determined as 31. The same compound had an IC50 in the experiment with Human betaherpesvirus 5 [2] of 0.5 µg/mL.

Consider `CC(C)(C)c1cc2c(OCCCn3cc(CN(O)C(=O)CCCCCn4cc(CO[C@H]5O[C@H](CO)[C@@H](O)[C@H](O)[C@@H]5O)nn4)nn3)c(c1)Cc1cc(C(C)(C)C)cc(c1OCCCn1cc(CN(O)C(=O)CCCCCn3cc(CO[C@H]4O[C@H](CO)[C@@H](O)[C@H](O)[C@@H]4O)nn3)nn1)Cc1cc(C(C)(C)C)cc(c1OCCCn1cc(CN(O)C(=O)CCCCCn3cc(CO[C@H]4O[C@H](CO)[C@@H](O)[C@H](O)[C@@H]4O)nn3)nn1)Cc1cc(C(C)(C)C)cc(c1OCCCn1cc(CN(O)C(=O)CCCCCn3cc(CO[C@H]4O[C@H](CO)[C@@H](O)[C@H](O)[C@@H]4O)nn3)nn1)C2`, for which, in the experiment with Human betaherpesvirus 5 [1], the “Ratio IC50” value was determined as 34. The compound further showed an IC50 in the experiment with Human betaherpesvirus 5 [2] of 0.45 µg/mL. For the compound `COC(=O)CNC(=O)CN(Cc1cn(CCCOc2c3cc(C(C)(C)C)cc2Sc2cc(C(C)(C)C)cc(c2OCCCn2cc(CN(CC(=O)NCC(=O)OC)C(=O)CCCCCn4cc(CO[C@@H]5O[C@@H](C)[C@@H](O)[C@@H](O)[C@@H]5O)nn4)nn2)Sc2cc(C(C)(C)C)cc(c2OCCCn2cc(CN(CC(=O)NCC(=O)OC)C(=O)CCCCCn4cc(CO[C@@H]5O[C@@H](C)[C@@H](O)[C@@H](O)[C@@H]5O)nn4)nn2)Sc2cc(C(C)(C)C)cc(c2OCCCn2cc(CN(CC(=O)NCC(=O)OC)C(=O)CCCCCn4cc(CO[C@@H]5O[C@@H](C)[C@@H](O)[C@@H](O)[C@@H]5O)nn4)nn2)S3)nn1)C(=O)CCCCCn1cc(CO[C@@H]2O[C@@H](C)[C@@H](O)[C@@H](O)[C@@H]2O)nn1`, the “Ratio IC50” value in the experiment with Human betaherpesvirus 5 [1] turned out to be 4.91. This compound also came in with a half-inhibitory concentration (IC50) with Human betaherpesvirus 5 [2] of 3.15 µg/mL.

In the case of `COC(=O)CNC(=O)CN(Cc1cn(CCCOc2c3cc(C(C)(C)C)cc2Cc2cc(C(C)(C)C)cc(c2OCCCn2cc(CN(CC(=O)NCC(=O)OC)C(=O)CCCCCn4cc(CO[C@@H]5O[C@@H](C)[C@@H](O)[C@@H](O)[C@@H]5O)nn4)nn2)Cc2cc(C(C)(C)C)cc(c2OCCCn2cc(CN(CC(=O)NCC(=O)OC)C(=O)CCCCCn4cc(CO[C@@H]5O[C@@H](C)[C@@H](O)[C@@H](O)[C@@H]5O)nn4)nn2)Cc2cc(C(C)(C)C)cc(c2OCCCn2cc(CN(CC(=O)NCC(=O)OC)C(=O)CCCCCn4cc(CO[C@@H]5O[C@@H](C)[C@@H](O)[C@@H](O)[C@@H]5O)nn4)nn2)C3)nn1)C(=O)CCCCCn1cc(CO[C@@H]2O[C@@H](C)[C@@H](O)[C@@H](O)[C@@H]2O)nn1`, the “Ratio IC50” value in the experiment on Human betaherpesvirus 5 [1] was 6.45. The 50% inhibitory concentration (IC50) with Human betaherpesvirus 5 [2] amounted to 2.4 µg/mL.

Turning to `OC[C@H]1O[C@@H](O[C@H]2[C@H](O)[C@@H](O)[C@H](O[C@H]3[C@H](O)[C@H](O)[C@H](O[C@@H]4[C@H](O)[C@H](O)[C@H](O)O[C@@H]4CO)O[C@@H]3CO)O[C@@H]2CO)[C@@H](O)[C@@H](O)[C@@H]1O`, in the experiment on Human betaherpesvirus 5 [2], the IC50 was 15.5 nM.
